Experimental findings from patent US8815919B2, “Oxadiazole derivatives” (Merck Serono SA, priority 2009, dated 2014) are described below.

Where a name gives a salt, the structure may show the parent alone. Read-outs that look alike come from different tables or passages of the source.

Assay [1] deals with T1, S1P1 (Homo sapiens, UniProt P21453). The experiment in a line: Receptor binding assay, [33P]sphingosine 1-phosphate competition, S1P1 membranes, WGA SPA beads. The method, boiled down: (§1)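 Competition of [33P]S1P ([…]) on CHO cell membranes with WGA SPA beads in 50 mM HEPES pH 7.5, 5 mM MgCl2, 100 mM NaCl, 0.4% fatty acid-free BSA; 60 min at RT. Triplicates normalised to total binding and nonspecific binding (1000-fold excess unlabeled S1P).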
Target sequence in this assay (P21453 whole entry, species assumed): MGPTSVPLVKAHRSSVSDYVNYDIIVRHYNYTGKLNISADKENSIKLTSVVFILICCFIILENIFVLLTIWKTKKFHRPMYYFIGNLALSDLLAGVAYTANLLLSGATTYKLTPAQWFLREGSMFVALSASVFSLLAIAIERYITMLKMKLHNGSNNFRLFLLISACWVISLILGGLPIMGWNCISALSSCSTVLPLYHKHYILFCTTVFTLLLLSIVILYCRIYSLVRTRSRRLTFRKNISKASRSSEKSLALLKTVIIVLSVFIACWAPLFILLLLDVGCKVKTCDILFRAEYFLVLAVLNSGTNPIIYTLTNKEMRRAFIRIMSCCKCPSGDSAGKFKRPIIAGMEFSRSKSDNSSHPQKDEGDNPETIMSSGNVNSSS

In assay [2] the target is T2, S1P3 (Homo sapiens, UniProt Q99500). Nature of the assay: 35S-GTPγS binding on membranes of CHO cells expressing S1P3. The class given is biochemical. As to conditions: read-out: S1P3/GTPG EC50. The method, then: (§2) Membranes were prepared from CHO cells expressing S1P1 or S1P3 for use in ligand and […] binding studies. Cells were suspended in 50 mM TRIS, pH 7.4, 2 mM EDTA, 250 mM Sucrose (buffer A) and 1× Complete protease inhibitor cocktail (Roche), and disrupted at 4° C. by N2 decompression using a cell disruption bomb (Parr Instrument). Following centrifugation at 1000 RPM for 10 min at 4° C., the supernatant was diluted (2×) in buffer A and centrifuged again at 19000 RPM for 75 min at 4° C. The pellet was then suspended in 10 mM HEPES, pH 7.4, 1 mM EDTA, 250 mM Sucrose (Buffer B), and 1× Complete EDTA-free protease inhibitor cocktail and homogenized using a potter. Membranes were flash frozen in liquid N2 and stored at −80° C.
T2 sequence (Q99500 whole entry, species assumed): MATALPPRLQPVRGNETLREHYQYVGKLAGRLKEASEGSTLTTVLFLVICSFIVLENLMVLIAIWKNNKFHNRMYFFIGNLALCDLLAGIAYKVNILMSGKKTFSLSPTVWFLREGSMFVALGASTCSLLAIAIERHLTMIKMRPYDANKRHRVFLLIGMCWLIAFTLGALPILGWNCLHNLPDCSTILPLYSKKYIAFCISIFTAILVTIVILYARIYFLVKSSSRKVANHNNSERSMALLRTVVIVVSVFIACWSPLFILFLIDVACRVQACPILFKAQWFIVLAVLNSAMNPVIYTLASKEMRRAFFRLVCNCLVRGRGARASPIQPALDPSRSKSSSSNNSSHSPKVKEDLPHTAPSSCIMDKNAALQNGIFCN
(§3) Membranes (1 to 10 μg protein) prepared as described above, were incubated in 96-well Scintiplates (PerkinElmer) with test compounds diluted in DMSO, in 140 μl of 20 mM HEPES, pH 7.4, 10 mM MgCl2, 2 μg/well Saponin, 0.2% fatty acid free BSA (Assay buffer), 125 mM NaCl and 1.5 μM GDP. The assay was initiated with the addition of 60 μl of 1.5 nM [35S]-GTPγS (1100 Ci/mmol; GE Healthcare) in assay buffer. After 60 min incubation at 30° C. on a shaker, plates were centrifuged for 10 min at 2000 RPM. Supernatant was discarded and membrane bound radioactivity was measured on a PerkinElmer 1450 MicroBeta counter. Triplicate samples were averaged and expressed as % response relative to S1P activation in absence of compound (n=2).
(§4) The “potency” or the “activity” of the compounds is determined by the EC50 values as evaluated in the above described 35S-GTPγS binding assay.

The target in assay [3] is T1, S1P1. The experiment in a line: 35S-GTPγS binding on membranes of CHO cells expressing S1P1. The class given is biochemical. The following applies: read-out: S1P1/GTPG EC50. As to the method: as §2, §3, §4
Target sequence in this assay (P21453 whole entry, species assumed): as the sequence (P21453 whole entry, species assumed) above
Assay [4] concerns the target T1, S1P1. The experiment in a line: S1P1 internalization assay in S1P1-U2OS cells (S1P1-EGFP), cell imaging. The arrangement: host or cells: U2OS (human bone osteosarcoma epithelial cells), CMV promoter, geneticin selection. As to conditions: 1 hour incubation. The class given is cell-based. The method, boiled down: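 U2OS cells stably expressing human S1P1-EGFP, plated overnight in 1% FCS medium, then serum-starved 2 h in 0.1% fatty-acid-free BSA before 1 h compound exposure at 37 °C. After PFA fixation and Hoechst staining, internalization imaged as EGFP spot count per nucleus.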
Target sequence in this assay (P21453 whole entry): as the sequence (P21453 whole entry, species assumed) above

The target of assay [5] is T2, S1P3. The experiment in a line: Receptor binding assay, [33P]sphingosine 1-phosphate competition, S1P3 membranes, WGA SPA beads. The method, boiled down:
as §1

Where [6] appears, read: 96 well-plate, read-out: S1P1 binding Ki (M) (96 well-plate).
Setting [7] is: 384 well-plate, read-out: S1P1 binding Ki (M) (384 well-plate).
Where [8] appears, read: 384 well-plate, read-out: S1P3 binding Ki (M) (384 well-plate).
Where [9] appears, read: 96 well-plate, read-out: S1P3 binding Ki (M) (96 well-plate).

On to `COCc1cc(-c2nc(-c3ccc(C(=O)NCCC(=O)O)c(Cl)c3)no2)ccc1-c1ccccc1C` [Example 15, N-(2-chloro-4-{5-[2-(methoxymethyl)-2′-methylbiphenyl-4-yl]-1,2,4-oxadiazol-3-yl}benzoyl)-beta-alanine], for which, in assay [1] (setting [6]), the Ki – broadly, the equilibrium dissociation constant of an inhibitor or competing ligand from its target – was 1.06e-09 M. In addition, the EC50 in assay [2] stood at 553 nM; in assay [3] it was 20.9 nM.
`COCc1cc(-c2nc(-c3cccc(CN(C)CCC(=O)O)c3)no2)ccc1N1CCCCC1C` (stereo not drawn) [Example 2, N-(3-{5-[3-(methoxymethyl)-4-(2-methylpiperidin-1-yl)phenyl]-1,2,4-oxadiazol-3-yl}benzyl)-N-methyl-beta-alanine, hydrochloride salt]: in assay [1] (setting [6]), the Ki came out at 1.36e-10 M. Moreover, the EC50 turned out to be 44.8 nM in assay [2] and 0.287 nM in assay [3].
Consider `COCc1cc(-c2nc(-c3cccc(NCC(O)CO)c3)no2)ccc1-c1ccccc1C` (stereo not drawn) [Example 22, 3-[(3-{5-[2-(methoxymethyl)-2′-methylbiphenyl-4-yl]-1,2,4-oxadiazol-3-yl}phenyl)amino]propane-1,2-diol], for which, in assay [1] (setting [6]), the Ki is 7.11e-10 M. Besides, in assay [2], the EC50 is 293 nM.
As for `CCC1CCCCN1c1ccc(-c2nc(-c3cccc(CN(C)CC(=O)O)c3)no2)cc1COC` (stereo not drawn) [Example 17, N-(3-{5-[4-(2-ethylpiperidin-1-yl)-3-(methoxymethyl)phenyl]-1,2,4-oxadiazol-3-yl}benzyl)-N-methylglycine, hydrochloride salt], the Ki in assay [1] (setting [6]) turned out to be 4.46e-10 M. In addition, the figures for the EC50 in assay [2] and in assay [3] were 255 nM and 1.41 nM, respectively.
As for `COCc1cc(-c2nc(-c3ccc(F)c(CN(C)CCC(=O)O)c3)no2)ccc1N1CCCCC1C` (stereo not drawn) [Example 19, N-(2-fluoro-5-{5-[3-(methoxymethyl)-4-(2-methylpiperidin-1-yl)phenyl]-1,2,4-oxadiazol-3-yl}benzyl)-N-methyl-beta-alanine, dihydrochloride salt], the inhibition constant (Ki) in assay [1] (setting [6]) was found to be 1.94e-10 M. The EC50 is 34.4 nM in assay [2] and 0.545 nM in assay [3].
As for `COCc1cc(-c2nc(-c3cccc(CC(=O)NCCNC(C)=O)c3)no2)ccc1-c1ccccc1C` [Example 25, N-[2-(acetylamino)ethyl]-2-(3-{5-[2-(methoxymethyl)-2′-methylbiphenyl-4-yl]-1,2,4-oxadiazol-3-yl}phenyl)acetamide], in assay [1] (setting [6]), the Ki is 8.51e-10 M. The EC50 was 635 nM in assay [2] and 7.08 nM in assay [3].
Regarding `COCc1cc(-c2nc(-c3cccc(CC(=O)NCC(=O)O)c3)no2)ccc1-c1ccccc1C` [Example 26, N-[(3-{5-[2-(methoxymethyl)-2′-methylbiphenyl-4-yl]-1,2,4-oxadiazol-3-yl}phenyl)acetyl]glycine], the EC50 in assay [3] amounted to 10.7 nM.
Regarding `COCc1cc(-c2nc(-c3cccc(COCCC(=O)O)c3)no2)ccc1N1CCCCC1C` (stereo not drawn) [Example 9, 3-[4(3-{5-[3-(methoxymethyl)-4-(2-methylpiperidin-1-yl)phenyl]-1,2,4-oxadiazol-3-yl}benzyl)oxy]propanoic acid, hydrochloride salt], in assay [1] (setting [6]), the inhibition constant (Ki) turned out to be 8.04e-10 M. In assay [3], the EC50 was found to be 3.85 nM.
Turning to `COCc1cc(-c2nc(-c3ccc(C(=O)NCC(O)CO)c(F)c3)no2)ccc1-c1ccccc1C` (stereo not drawn) [Example 27, N-(2,3-dihydroxypropyl)-2-fluoro-4-{5-[2-(methoxymethyl)-2′-methylbiphenyl-4-yl]-1,2,4-oxadiazol-3-yl}benzamide], the EC50 in assay [3] was determined as 17.8 nM.
In the case of `COCc1cc(-c2nc(-c3cccc(CC(=O)NCC(=O)OC)c3)no2)ccc1-c1ccccc1C` [Example 24, methyl N-[(3-{5-[2-(methoxymethyl)-2′-methylbiphenyl-4-yl]-1,2,4-oxadiazol-3-yl}phenyl)acetyl]glycinate], the Ki in assay [1] (setting [6]) was 9.12e-10 M. For the same compound, the EC50 in assay [3] worked out at 2.11 nM.
As for `COCc1cc(-c2nc(-c3ccc(C(=O)NCCC(=O)O)c(F)c3)no2)ccc1N1CCCCC1C` (stereo not drawn) [Example 3, N-(2-fluoro-4-{5-[3-(methoxymethyl)-4-(2-methylpiperidin-1-yl)phenyl]-1,2,4-oxadiazol-3-yl}benzoyl)-beta-alanine], the Ki in assay [1] (setting [6]) stood at 8.32e-10 M. Moreover, the EC50 worked out at 7.76 nM in assay [4] and 8.43 nM in assay [3].
As to `COCc1cc(-c2nc(-c3cccc(CC(=O)NCCC(=O)O)c3)no2)ccc1-c1ccccc1C` [Example 43, N-[(3-{5-[2-(methoxymethyl)-2′-methylbiphenyl-4-yl]-1,2,4-oxadiazol-3-yl}phenyl)acetyl]-beta-alanine], the Ki in assay [1] (setting [6]) was determined as 2.16e-09 M; in assay [1] (setting [7]) it was 6.6e-09 M; in assay [5] (setting [8]), 2e-07 M. The same compound registered an EC50 in assay [4] of 34.5 nM.
Consider `COCc1cc(-c2nc(-c3ccc(CN(C)CC(=O)O)c(F)c3F)no2)ccc1-c1ccccc1C` [Example 149, 2-((2,3-difluoro-4-(5-(2-(methoxymethyl)-2′-methylbiphenyl-4-yl)-1,2,4-oxadiazol-3-yl)benzyl)(methyl)amino)acetic acid, hydrochloride salt], for which the Ki in assay [1] (setting [7]) was 1.26e-09 M; in assay [5] (setting [8]), 1.48e-07 M. The same compound gave an EC50 in assay [4] of 9.54 nM.
Consider `COCc1cc(-c2nc(-c3cccc(CN(C)CC(=O)O)c3)no2)ccc1N1CCCCC1` [Example 29], for which the Ki in assay [1] (setting [6]) was found to be 1.47e-10 M; in assay [5] (setting [8]), 2.38e-07 M. Also, the EC50 in assay [4] was 7.33 nM.
For the compound `COCc1cc(-c2nc(-c3cc(F)c(F)c(OCCCC(=O)O)c3)no2)ccc1-c1ccccc1C` [Example 5, 4-(2,3-difluoro-5-{5-[2-(methoxymethyl)-2′-methylbiphenyl-4-yl]-1,2,4-oxadiazol-3-yl}phenoxy)butanoic acid], the Ki in assay [1] (setting [6]) worked out at 4.09e-09 M; in assay [1] (setting [7]) it was 1.45e-08 M. In addition, the EC50 in assay [4] was 157 nM; in assay [3], 22.7 nM.
Take `CCN(CC(=O)O)Cc1cccc(-c2noc(-c3ccc(-c4ccccc4C)c(COC)c3)n2)c1` [Example 78, N-ethyl-N-(3-{5-[2-(methoxymethyl)-2′-methylbiphenyl-4-yl]-1,2,4-oxadiazol-3-yl}benzyl)glycine, hydrochloride salt]: the Ki in assay [1] (setting [6]) came to 4.41e-10 M; in assay [1] (setting [7]) it was 2.47e-09 M; in assay [5] (setting [9]), 1.5e-07 M; in assay [5] (setting [8]), 3.54e-07 M. Also, the EC50 in assay [4] was 34.3 nM.
As to `COCc1cc(-c2nc(-c3cc(F)cc(CN(C)CC(=O)O)c3)no2)ccc1-c1ccccc1F` [Example 57, N-(3-fluoro-5-{5-[2′-fluoro-2-(methoxymethyl)biphenyl-4-yl]-1,2,4-oxadiazol-3-yl}benzyl)-N-methylglycine, hydrochloride salt], the Ki in assay [1] (setting [6]) came out at 1.14e-10 M; in assay [5] (setting [9]) it was 7.22e-09 M. Further, in assay [4], the EC50 is 8.46 nM.
Turning to `COCc1cc(-c2nc(-c3cccc(CN(CC(=O)O)CC(C)C)c3)no2)ccc1-c1ccccc1C` [Example 59, N-isobutyl-N-(3-{5-[2-(methoxymethyl)-2′-methylbiphenyl-4-yl]-1,2,4-oxadiazol-3-yl}benzyl)glycine, hydrochloride salt], the Ki in assay [1] (setting [6]) stood at 1.1e-09 M; in assay [1] (setting [7]) it was 7.94e-09 M; in assay [5] (setting [8]) it was 8.49e-07 M. The EC50 in assay [4] worked out at 74.5 nM.
Regarding `Cc1ccccc1-c1ccc(-c2nc(-c3cccc(S(C)(=O)=O)c3)no2)cc1CN(C)C` [Example 8, N,N-dimethyl-1-(2′-methyl-4-{3-[3-(methylsulfonyl)phenyl]-1,2,4-oxadiazol-5-yl}biphenyl-2-yl)methanamine], in assay [3], the EC50 stood at 11.7 nM.
On to `COCc1cc(-c2nc(-c3cccc(CC(=O)NCCN(C)C)c3)no2)ccc1-c1ccccc1C` [Example 41, N-[2-(dimethylamino)ethyl]-2-(3-{5-[2-(methoxymethyl)-2′-methylbiphenyl-4-yl]-1,2,4-oxadiazol-3-yl}phenyl)acetamide], for which the results for the Ki in assay [1] (setting [6]), in assay [1] (setting [7]) and in assay [5] (setting [8]) were 1.27e-09 M, 8.34e-09 M and 4.3e-06 M, respectively. The EC50 in assay [4] is 76.9 nM.
